PubChem BioAssay AID652019 (Molecular Libraries Program, Specialized Chemistry Center, …, 2013)
Active and inactive are the calls of the source.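 The calls were made as follows: active = compound whose activity held up on retesting over a range of doses, giving a fitted IC50; inactive = the rest.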

System: E. coli EV36, T7 phage lysis inhibition, OD600
Assay: inhibition of T7 phage lysis, E. coli EV36, dose response, selectivity assay for bacterial capsule biogenesis inhibitor project, OD600, set 6 (AID 652019)

Cc1nc2ccc(C(=O)Nc3cnccc3NC(=O)OC(C)(C)C)cc2s1
IC50: > 50 µM (inactive)

CC(C)(C)OC(=O)Nc1cnccc1NC(=O)c1ccc2ncsc2c1
IC50: > 50 µM (inactive)

Cc1cnccc1NC(=O)c1ccc2nc(NC(=O)OC(C)(C)C)sc2c1
IC50: > 50 µM (inactive)

CC(C)(C)OC(=O)Nc1nc2ccc(C(=O)Nc3ccnc(Cl)c3)cc2s1
IC50: 0.49 µM

Cc1nc2ccc(C(=O)Nc3ccncc3F)cc2s1
IC50: > 50 µM (inactive)

O=C(Nc1ccncc1Br)c1ccc2nc(N3CCCC3)sc2c1
IC50: > 50 µM (inactive)

Cc1nc2ccc(C(=O)Nc3ccncc3Br)cc2s1
IC50: > 50 µM (inactive)

COc1cc(NC(=O)c2ccc3nc(C)sc3c2)ccn1
IC50: 3.96 µM

O=C(Nc1ccncc1Br)c1ccc2ncsc2c1
IC50: > 50 µM (inactive)

O=C(Nc1ccnc(Br)c1)c1ccc2nc(N3CCCC3)sc2c1
IC50: > 50 µM (inactive)

Cc1cnccc1NC(=O)c1ccc2nc(N)sc2c1
IC50: > 50 µM (inactive)

CC(C)(C)OC(=O)Nc1ccc(NC(=O)c2ccc3nc(NC(=O)OC(C)(C)C)sc3c2)cn1
IC50: > 50 µM (inactive)

CC(C)(C)OC(=O)Nc1nc2ccc(C(=O)Nc3ccncc3Br)cc2s1
IC50: > 50 µM (inactive)

Cc1nc2ccc(C(=O)Nc3ccncc3C)cc2s1
IC50: > 50 µM (inactive)

O=C(Nc1ccncc1F)c1ccc2ncsc2c1
IC50: 3.31 µM

COc1cc(NC(=O)c2ccc3nc(N4CCCC4)sc3c2)ccn1
IC50: > 50 µM (inactive)

Cc1cc(NC(=O)c2ccc3nc(NC(=O)OC(C)(C)C)sc3c2)ccn1
IC50: 0.49 µM

O=C(O)c1ccc2ncsc2c1
IC50: > 50 µM (inactive)

Cc1cc(NC(=O)c2ccc3nc(N4CCCC4)sc3c2)ccn1
IC50: > 50 µM (inactive)

CC(C)(C)OC(=O)Nc1nc2ccc(C(=O)Nc3ccnc(F)c3)cc2s1
IC50: 1.16 µM

Cc1cnccc1NC(=O)c1ccc2nc(N3CCCC3)sc2c1
IC50: > 50 µM (inactive)

Cc1cnccc1NC(=O)c1ccc2ncsc2c1
IC50: 3.58 µM

COc1cc(NC(=O)c2ccc3nc(NC(=O)OC(C)(C)C)sc3c2)ccn1
IC50: > 50 µM (inactive)

O=C(Nc1ccncc1)c1ccc2nc(N3CCCC3)sc2c1
IC50: > 50 µM (inactive)

CC(C)(C)OC(=O)Nc1nc2ccc(C(=O)Nc3ccnc(Br)c3)cc2s1
IC50: 3.66 µM

CC(C)(C)OC(=O)Nc1cnccc1NC(=O)c1ccc2nc(N)sc2c1
IC50: > 50 µM (inactive)

CC(C)(C)OC(=O)Nc1ccc(NC(=O)c2ccc3nc(N4CCCC4)sc3c2)cn1
IC50: > 50 µM (inactive)

COc1cc(NC(=O)c2ccc3nc(N)sc3c2)ccn1
IC50: 0.94 µM

Cc1nc2ccc(C(=O)Nc3ccnc(F)c3)cc2s1
IC50: > 50 µM (inactive)

Nc1cnccc1NC(=O)c1ccc2ncsc2c1
IC50: > 50 µM (inactive)

O=C(Nc1ccnc(Cl)c1)c1ccc2nc(N3CCCC3)sc2c1
IC50: > 50 µM (inactive)

Cc1nc2ccc(C(=O)Nc3ccncc3)cc2s1
IC50: 2.54 µM

CC(C)(C)OC(=O)Nc1nc2ccc(C(=O)Nc3ccncc3)cc2s1
IC50: > 50 µM (inactive)

Nc1ccncc1
IC50: > 50 µM (inactive)

O=C(Nc1ccncc1F)c1ccc2nc(N3CCCC3)sc2c1
IC50: > 50 µM (inactive)

Nc1nc2ccc(C(=O)Nc3ccncc3)cc2s1
IC50: > 50 µM (inactive)

Nc1nc2ccc(C(=O)Nc3ccncc3F)cc2s1
IC50: > 50 µM (inactive)
